Assay results from article PMC4908816 (Molecular microbiology, 2016).
Where “and” joins values, the source holds several entries; their conditions need not be identical. Equal entries are not always repeated.

Legend:
[1] = tested on: R388-mediated conjugation; settings: cited from earlier work; for inhibition of bacterial conjugation in vivo assays: ref Fernández-Lopez et al., 2005; for inhibition of bacterial conjugation: ref Getino et al., 2015
TrwD [2] = target: T1, TrwD (Escherichia coli, UniProt O50338); experiment: ATP hydrolysis assay; format: biochemical, conjugative plasmid R388; settings: for inhibition (reduction) of TrwD ATPase activity: 50 μM fatty acid; for K0.5 ATP of TrwD in the presence of fatty acid / mechanism of inhibition of TrwD ATP hydrolysis: 21 μM linoleic acid or 30 μM 2-HDA; for K0.5 ATP of TrwD in the presence of fatty acid: 44 μM in the absence of fatty acids; for mechanism of inhibition of TrwD ATP hydrolysis: increasing ATP; for effect on Vmax of TrwD ATP hydrolysis: compound at its Ki[app] (21 μM linoleic acid, 30 μM 2-HDA)
[3] = tested on: R388 transfer (bacterial conjugation); experiment: High-throughput conjugation assay; format: cell-based; settings: 500 μM compound (Fig. 3A), E. coli DH5α donor, BL21(DE3) recipient
TrwD [4] = target: T1, TrwD; experiment: Partial proteolysis of TrwD by papain; design: species or system conjugative plasmid R388; settings: 1:10 to 1:100 TrwD:2-HDA or 1:100 TrwD:palmitic acid molar ratio; 90 min, 25 °C
TrwC = experiment: ATP hydrolysis assay; format: biochemical, conjugative plasmid R388; settings: 50 μM linoleic acid; ATPase 2 μM
TrwB = TrwB (Escherichia coli, UniProt Q04230); experiment: ATP hydrolysis assay; format: biochemical, conjugative plasmid R388; settings: 50 μM linoleic acid; ATPase 2 μM
TrwK = TrwK (Escherichia coli, UniProt O50330); experiment: ATP hydrolysis assay; format: biochemical, conjugative plasmid R388; settings: 50 μM linoleic acid; ATPase 2 μM

T1 sequence (O50338 1-358): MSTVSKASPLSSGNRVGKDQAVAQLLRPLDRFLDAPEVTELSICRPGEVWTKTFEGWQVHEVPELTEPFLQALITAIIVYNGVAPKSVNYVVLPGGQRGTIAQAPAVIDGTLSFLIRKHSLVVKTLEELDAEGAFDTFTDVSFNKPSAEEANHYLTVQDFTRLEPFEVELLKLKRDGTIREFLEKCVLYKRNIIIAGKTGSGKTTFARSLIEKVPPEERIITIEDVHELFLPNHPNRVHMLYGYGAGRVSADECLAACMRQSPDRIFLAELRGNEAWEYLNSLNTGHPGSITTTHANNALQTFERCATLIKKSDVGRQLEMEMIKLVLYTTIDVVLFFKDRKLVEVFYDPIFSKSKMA

Row | SMILES | inhibition of bacterial conjugation in vivo assays [1] | inhibition (reduction) of TrwD ATPase activity (TrwD [2]; TrwD 2 μM) | inhibition of bacterial conjugation [1] | Ki (TrwD [2]) [µM] | other results
1 | CCCCCCCCCCCC(=O)O [Lauric acid] | unable to inhibit significantly | no inhibition was observed |  |  | 
2 | CCCCCCCCCCCCCCCC#CC(=O)O [2-ODA, 2-octadecynoic acid] |  |  | more effective in inhibiting bacterial conjugation | 29.8 ± 4.1 | inhibition of bacterial conjugation [3]: efficient conjugation inhibitors
3 | CCCCCCCCCCCCCCCC(=O)O [Palmitic acid] | unable to inhibit significantly | no inhibition was observed |  |  | susceptibility of TrwD to papain digestion (TrwD [4]): did not affect the susceptibility
4 | CCCCCCCC/C=C\CCCCCCCC(=O)O [oleic acid] | effective inhibitors of bacterial conjugation | more than 90% |  |  | 
5 | CCCCCCCCCCCCCC#CC(=O)O [2-HDA, 2-hexadecynoic acid] |  |  | more effective in inhibiting bacterial conjugation | 29.7 ± 2.1 | susceptibility of TrwD to papain digestion (TrwD [4]): high susceptibility to papain degradation; K0.5 ATP of TrwD in the presence of fatty acid (TrwD [2]; TrwD 2 μM): 66 µM; mechanism of inhibition of TrwD ATP hydrolysis (TrwD [2]): non-competitive; Kd ADP of TrwD in the presence of fatty acid (TrwD [2]; 30 μM 2-HDA, TrwD 2 μM, control without 2-HDA 45.1 ± 4.1 μM): 51 µM and 51.7 ± 9.8 µM; effect on Vmax of TrwD ATP hydrolysis (TrwD [2]): reduced by half
6 | CCCCCCCCCC#CCCC#CC(=O)O [2,6-HDA, 2,6 hexadecadiynoic acid] |  |  | more effective in inhibiting bacterial conjugation | 43.8 ± 2.8 | inhibition of bacterial conjugation [3]: efficient conjugation inhibitors
7 | CCCCC/C=C\C/C=C\CCCCCCCC(=O)O [linoleic acid] | effective inhibitors of bacterial conjugation |  |  | 20.9 ± 1.6 | effect on TrwC ATPase activity (TrwC): no significant effect; K0.5 ATP of TrwD in the presence of fatty acid (TrwD [2]; TrwD 2 μM): 44 µM; mechanism of inhibition of TrwD ATP hydrolysis (TrwD [2]): non-competitive; effect on Vmax of TrwD ATP hydrolysis (TrwD [2]): reduced by half; effect on TrwB ATPase activity (TrwB): no significant effect; effect on TrwK ATPase activity (TrwK): no significant effect
